# Laboratory results reported in patent publication US8309718B2, “4-pyrazolyl-N-arylpyrimidin-2-amines and 4-pyrazolyl-N-heteroarylpyrimidin-2-amines as janus kinase inhibitors” (Incyte Corporation, priority 2007, dated 2012).
# Target: T1, human JAK2 (Homo sapiens, UniProt O60674)
# T1 construct: JAK2 (a.a. 828-1132); His tag (N); made in house; host or cells: insect cells (baculovirus)
# Experiment: In vitro JAK kinase assay (HTRF, phosphorylation of biotinylated peptide)
# Format: biochemical
# Conditions: catalytic domain a.a. 828-1132, 30 μM ATP, 500 nM peptide, room temperature 1 hr; read-out: JAK-2 IC50
# Description: Compounds herein were tested for inhibitory activity of JAK targets according to the following in vitro assay described in Park et al, Analytical Biochemistry 1999, 269, 94-104. The catalytic domains of human JAK1 (a.a. 837-1142), JAK2 (a.a. 828-1132) and JAK3 (a.a. 781-1124) with an N-terminal His tag were expressed using baculovirus in insect cells and purified. The catalytic activity of JAK1, JAK2 or JAK3 was assayed by measuring the phosphorylation of a biotinylated peptide. The phosphorylated peptide was detected by homogenous time resolved fluorescence (HTRF). IC50s of compounds were measured for each kinase in the reactions that contain the enzyme, ATP and 500 nM peptide in 50 mM Tris (pH 7.8) buffer with 100 mM NaCl, 5 mM DTT, and 0.1 mg/mL (0.01%) BSA. The ATP concentration in the reactions was 90 μM for JAK1, 30 μM for Jak2 and 3 μM for JAK3. Reactions were carried out at room temperature for 1 hr and then stopped with 20 μL 45 mM EDTA, 300 nM SA-APC, 6 nM Eu-Py20 in assay buffer (Perkin Elmer, Boston, Mass.). Binding to the Europium labeled antibody took place for 40 minutes and HTRF signal was measured on a Fusion plate reader (Perkin Elmer, Boston, Mass.). Certain of the above compounds were tested according to this assay.
# T1 sequence (O60674 828-1132): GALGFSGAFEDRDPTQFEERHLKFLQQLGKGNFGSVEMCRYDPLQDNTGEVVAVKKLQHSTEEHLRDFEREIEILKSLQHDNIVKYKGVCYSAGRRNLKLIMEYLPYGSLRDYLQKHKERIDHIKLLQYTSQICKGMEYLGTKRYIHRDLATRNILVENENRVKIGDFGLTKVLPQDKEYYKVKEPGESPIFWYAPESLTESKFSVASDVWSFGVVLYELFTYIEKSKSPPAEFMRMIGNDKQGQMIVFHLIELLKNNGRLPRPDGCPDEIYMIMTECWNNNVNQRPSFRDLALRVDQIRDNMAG
row,Structure (SMILES),IC50
1,"N#CCC(CC1CCN(C(=O)c2ccc(F)cc2F)CC1)n1cc(-c2ccnc(Nc3ccccc3)n2)cn1 (racemic) [Example 4, 4-(1-(2,4-difluorobenzoyl)piperidin-4-yl)-3-(4-(2-(phenylamino)pyrimidin-4-yl)-1H-pyrazol-1-yl)butanenitrile]",< 0.1 µM
2,"N#CCC(CC1CCN(C(=O)c2ccc(F)cc2F)CC1)n1cc(-c2ccnc(Nc3ccc(N4CCOCC4)cc3)n2)cn1 (racemic) [Example 5, 4-(1-(2,4-difluorobenzoyl)piperidin-4-yl)-3-(4-(2-(4-morpholinophenylamino)pyrimidin-4-yl)-1H-pyrazol-1-yl)butanenitrile]",< 0.1 µM
3,"N#CCC(CC1CCN(C(=O)c2ccc(F)cc2F)CC1)n1cc(-c2ccnc(Nc3ccc(-n4cccn4)cc3)n2)cn1 (racemic) [Example 6, 3-(4-(2-(4-(1H-pyrazol-1-yl)phenylamino)pyrimidin-4-yl)-1H-pyrazol-1-yl)-4-(1-(2,4-difluorobenzoyl)piperidin-4-yl)butanenitrile]",< 0.1 µM
4,"N#CCC(CC1CCN(C(=O)c2ccc(F)cc2F)CC1)n1cc(-c2ccnc(Nc3cccc(-c4cnco4)c3)n2)cn1 (racemic) [Example 7, 4-(1-(2,4-difluorobenzoyl)piperidin-4-yl)-3-(4-(2-(3-(oxazol-5-yl)phenylamino)pyrimidin-4-yl)-1H-pyrazol-1-yl)butanenitrile]",< 0.1 µM
5,"Cn1ccc(Nc2nccc(-c3cnn(C(CC#N)CC4CCN(C(=O)c5ccc(F)cc5F)CC4)c3)n2)n1 (racemic) [Example 8, 4-(1-(2,4-difluorobenzoyl)piperidin-4-yl)-3-(4-(2-(1-methyl-1H-pyrazol-3-ylamino)pyrimidin-4-yl)-1H-pyrazol-1-yl)butanenitrile]",< 0.1 µM
6,"N#CCC(CC1CCN(C(=O)c2ccc(F)cc2F)CC1)n1cc(-c2ccnc(Nc3ccc(Oc4ccccc4)cc3)n2)cn1 (racemic) [Example 11, 4-(1-(2,4-difluorobenzoyl)piperidin-4-yl)-3-(4-(2-(4-phenoxyphenylamino)pyrimidin-4-yl)-1H-pyrazol-1-yl)butanenitrile]",< 0.1 µM
7,"N#CCC1(n2cc(-c3ccnc(Nc4ccc(-n5cccn5)cc4)n3)cn2)CCN(C(=O)c2ccno2)CC1 (racemic) [Example 12, 2-(4-(4-(2-(4-(1H-pyrazol-1-yl)phenylamino)pyrimidin-4-yl)-1H-pyrazol-1-yl)-1-(isoxazole-5-carbonyl)piperidin-4-yl)acetonitrile]",< 0.1 µM
8,"N#CCC1(n2cc(-c3ccnc(Nc4cccc(-c5cnco5)c4)n3)cn2)CCN(C(=O)c2ccno2)CC1 (racemic) [Example 13, 2-(1-(isoxazole-5-carbonyl)-4-(4-(2-(3-(oxazol-5-yl)phenylamino)pyrimidin-4-yl)-1H-pyrazol-1-yl)piperidin-4-yl)acetonitrile]",< 0.1 µM
9,"N#CCC1(n2cc(-c3ccnc(Nc4cccc(-c5nnn[nH]5)c4)n3)cn2)CCN(C(=O)c2ccno2)CC1 (racemic) [Example 14, 2-(4-(4-(2-(3-(1H-tetrazol-5-yl)phenylamino)pyrimidin-4-yl)-1H-pyrazol-1-yl)-1-(isoxazole-5-carbonyl)piperidin-4-yl)acetonitrile]",< 0.1 µM
10,"N#CCC1(n2cc(-c3ccnc(Nc4ccc(S(=O)(=O)N5CCOCC5)cc4)n3)cn2)CCN(C(=O)c2ccno2)CC1 (racemic) [Example 15, 2-(1-(isoxazole-5-carbonyl)-4-(4-(2-(4-(morpholinosulfonyl)phenylamino)pyrimidin-4-yl)-1H-pyrazol-1-yl)piperidin-4-yl)acetonitrile]",< 0.1 µM
11,"COc1ccc(Nc2nccc(-c3cnn(C4(CC#N)CCN(C(=O)c5ccno5)CC4)c3)n2)cn1 (racemic) [Example 16, 2-(1-(isoxazole-5-carbonyl)-4-(4-(2-(6-methoxypyridin-3-ylamino)pyrimidin-4-yl)-1H-pyrazol-1-yl)piperidin-4-yl)acetonitrile]",< 0.1 µM
12,"N#CCC1(n2cc(-c3ccnc(Nc4ccc(-n5cccn5)cc4)n3)cn2)CN(S(=O)(=O)C2CC2)C1 (racemic) [Example 17, 2-(3-(4-(2-(4-(1H-pyrazol-1-yl)phenylamino)pyrimidin-4-yl)-1H-pyrazol-1-yl)-1-(cyclopropylsulfonyl)azetidin-3-yl)acetonitrile]",< 0.1 µM
13,"N#CCC(C1CCNCC1)n1cc(-c2ccnc(Nc3ccc(N4CCOCC4)cc3)n2)cn1 (racemic) [Example 22, 3-(4-(2-(4-morpholinophenylamino)pyrimidin-4-yl)-1H-pyrazol-1-yl)-3-(piperidin-4-yl)propanenitrile]",< 0.1 µM

# The remaining lines, values ahead:
row,IC50,Structure (SMILES)
1,< 0.1 µM,"CC(=O)N[C@@H]1CCN(C(=O)c2ccc(Nc3nccc(-c4cnn(C(CC#N)C5CC5)c4)n3)cc2)C1 (mixture of isomers) [Example 268, N-((3R)-1-(4-(4-(1-(2-cyano-1-cyclopropylethyl)-1H-pyrazol-4-yl)pyrimidin-2-ylamino)benzoyl)pyrrolidin-3-yl)acetamide]"
2,< 0.1 µM,"CN(C)C1CCN(C(=O)c2ccc(Nc3nccc(-c4cnn(C(CC#N)C5CC5)c4)n3)cc2)C1 (mixture of isomers) [Example 270, 3-cyclopropyl-3-(4-(2-(4-(3-(dimethylamino)pyrrolidine-1-carbonyl)phenylamino)pyrimidin-4-yl)-1H-pyrazol-1-yl)propanenitrile]"
3,< 0.1 µM,"N#CCC(C1CC1)n1cc(-c2ccnc(Nc3ccc(C(=O)N4CC[C@H](F)C4)cc3)n2)cn1 (mixture of isomers) [Example 271, 3-cyclopropyl-3-(4-(2-(4-((S)-3-fluoropyrrolidine-1-carbonyl)phenylamino)pyrimidin-4-yl)-1H-pyrazol-1-yl)propanenitrile]"
4,< 0.1 µM,"N#CCC(C1CCOCC1)n1cc(-c2ccnc(Nc3ccc(C(=O)N4CC[C@@H](O)C4)cc3)n2)cn1 (mixture of isomers) [Example 315, 3-(4-{2-[(4-{[(3R)-3-hydroxypyrrolidin-1-yl]carbonyl}phenyl)amino]pyrimidin-4-yl}-1H-pyrazol-1-yl)-3-(tetrahydro-2H-pyran-4-yl)propanenitrile]"
5,< 0.1 µM,"CO[C@H]1CCN(C(=O)c2ccc(Nc3nccc(-c4cnn(C(CC#N)C5CCOCC5)c4)n3)cc2)C1 (mixture of isomers) [Example 316, 3-(4-{2-[(4-{[(3S)-3-methoxypyrrolidin-1-yl]carbonyl}phenyl)amino]pyrimidin-4-yl}-1H-pyrazol-1-yl)-3-(tetrahydro-2H-pyran-4-yl)propanenitrile]"
6,< 0.1 µM,"N#CCC(C1CCOCC1)n1cc(-c2ccnc(Nc3ccc(C(=O)N4CC[C@H](C#N)C4)cc3)n2)cn1 (mixture of isomers) [Example 317, (3S)-1-{4-[(4-{1-[2-cyano-1-(tetrahydro-2H-pyran-4-yl)ethyl]-1H-pyrazol-4-yl}pyrimidin-2-yl)amino]benzoyl}pyrrolidine-3-carbonitrile]"
7,< 0.1 µM,"COc1cnc(Nc2cccc(C(=O)N3CC[C@@H](O)C3)c2)nc1-c1cnn(C(CC#N)C2CC2)c1 (mixture of isomers) [Example 325, 3-cyclopropyl-3-(4-{2-[(3-{[(3R)-3-hydroxypyrrolidin-1-yl]carbonyl}phenyl)amino]-5-methoxypyrimidin-4-yl}-1H-pyrazol-1-yl)propanenitrile]"
8,< 0.1 µM,"COc1cnc(Nc2cccc(C(=O)N3CC[C@H](OC)C3)c2)nc1-c1cnn(C(CC#N)C2CC2)c1 (mixture of isomers) [Example 326, 3-cyclopropyl-3-(4-{5-methoxy-2-[(3-{[(3S)-3-methoxypyrrolidin-1-yl]carbonyl}phenyl)amino]pyrimidin-4-yl}-1H-pyrazol-1-yl)propanenitrile]"
9,< 0.1 µM,"COc1cnc(Nc2cccc(C(=O)N3CC[C@H](C#N)C3)c2)nc1-c1cnn(C(CC#N)C2CC2)c1 (mixture of isomers) [Example 327, (3S)-1-[3-({4-[1-(2-cyano-1-cyclopropylethyl)-1H-pyrazol-4-yl]-5-methoxypyrimidin-2-yl}amino)benzoyl]pyrrolidine-3-carbonitrile]"
10,< 0.1 µM,"N#CCC(CC1CCN(C(=O)c2ccc(F)cc2F)CC1)n1cc(-c2ccnc(Nc3ccc(-n4ccnc4)cc3)n2)cn1 (racemic) [Example 1, 3-(4-(2-(4-(1H-imidazol-1-yl)phenylamino)pyrimidin-4-yl)-1H-pyrazol-1-yl)-4-(1-(2,4-difluorobenzoyl)piperidin-4-yl)butanenitrile]"
11,< 0.1 µM,"N#CCC(CC1CCN(C(=O)c2ccc(F)cc2F)CC1)n1cc(-c2ccnc(Nc3ccc(N4CCNCC4)cc3)n2)cn1 (racemic) [Example 2, 4-(1-(2,4-difluorobenzoyl)piperidin-4-yl)-3-(4-(2-(4-(piperazin-1-yl)phenylamino)pyrimidin-4-yl)-1H-pyrazol-1-yl)butanenitrile]"
12,< 0.1 µM,"COc1ccc(Nc2nccc(-c3cnn(C(CC#N)CC4CCN(C(=O)c5ccc(F)cc5F)CC4)c3)n2)cc1 (racemic) [Example 3, 4-(1-(2,4-difluorobenzoyl)piperidin-4-yl)-3-(4-(2-(4-methoxyphenylamino)pyrimidin-4-yl)-1H-pyrazol-1-yl)butanenitrile]"
